Measurements published in US9777020B2, “Furo-3-carboxamide derivatives and methods of use” (AbbVie Inc., priority 2014, dated 2017).

molecular target: TrkA (Homo sapiens (Human), UniProt P04629); experiment: TrkA kinase HTRF enzyme inhibition assay; type: biochemical; conditions: TrkA pre-incubated with 200 μM ATP
Experimental: TrkA enzyme was obtained from Invitrogen (as catalog numbers PV3144, PV3616, and PV3617, respectively). Enzyme activity was measured in an HTRF® (homogeneous time resolved fluorescence) assay, which detects enzymatic phosphorylation of a biotinylated synthetic peptide substrate (an LCK peptide analog, biotin-ahx-[…], from Genemed Synthesis). Phosphorylation is assessed by HTRF® in the presence of an anti-phosphotyrosine antibody conjugated to Eu^3+ cryptate (Cisbio) as donor fluorophore, and streptavidin conjugated to allophycocyanin (ProZyme) as acceptor fluorophore. The HTRF® signal was detected at two different wavelengths (620 nm and 665 nm) which were used to calculate the fluorescence ratio.
TrkA enzyme was titrated to a concentration optimized to ensure accurate measurement of the initial reaction rate. To allow the TrkA enzyme to undergo activation and auto-phosphorylation, a 20 minute pre-incubation with ATP was carried out (at twice the final targeted enzyme and ATP concentration) prior to addition of test compound and the peptide substrate.
TrkA in vitro assays were performed by pre-incubating TrkA (2-10 nM) with ATP (200 μM) for 20 minutes at ambient temperature in 50 mM HEPES pH 7.4, 10 mM MgCl2, 2 mM MnCl2, 100 μM Na3VO4, 1 mM dithiothreitol, 0.01% BSA (bovine serum albumin). Then, to the activated Trk enzyme mixture was added the test compound in 2% dimethyl sulfoxide. After 10 minutes, the peptide substrate (125 nM) was added. After 1 hour, enzyme reactions were terminated by addition of equal reaction volumes of detection/stop reagent (containing 0.2 μg/mL anti-phosphotyrosine monoclonal antibody labeled with europium from Cisbio (catalog#PT66-K), and 4 μg/mL PhycoLink® Streptavidin-Allophycocyanin conjugate from ProZyme (catalog#PJ25S) in 60 mM EDTA in 40 mM HEPES pH 7.4, 480 mM KF, 0.01% Tween® 20 and 0.1% BSA bovine serum albumin) Reaction plates were stored at 4° C. overnight before reading the fluorescence ratio signal on a PerkinElmer EnVision™ fluorescence detector. Individual reaction wells were stopped at time points to obtain reaction rates. The test inhibitor compounds were assayed in duplicate, at half-log serial dilutions over a range of concentrations (e.g. starting at 50 μM or 5 μM as the high compound concentration). The percent Trk enzyme inhibition was calculated from the initial rates of the inhibited reactions relative to the uninhibited control. IC50 values were calculated by fitting the inhibition percent to the concentration of inhibitor [I] in the assay in equation 1 below, to solve for the IC50. Inhibition %=100[I]/([I]+[IC50]) equation 1

Sequence of TrkA (P04629 33-796): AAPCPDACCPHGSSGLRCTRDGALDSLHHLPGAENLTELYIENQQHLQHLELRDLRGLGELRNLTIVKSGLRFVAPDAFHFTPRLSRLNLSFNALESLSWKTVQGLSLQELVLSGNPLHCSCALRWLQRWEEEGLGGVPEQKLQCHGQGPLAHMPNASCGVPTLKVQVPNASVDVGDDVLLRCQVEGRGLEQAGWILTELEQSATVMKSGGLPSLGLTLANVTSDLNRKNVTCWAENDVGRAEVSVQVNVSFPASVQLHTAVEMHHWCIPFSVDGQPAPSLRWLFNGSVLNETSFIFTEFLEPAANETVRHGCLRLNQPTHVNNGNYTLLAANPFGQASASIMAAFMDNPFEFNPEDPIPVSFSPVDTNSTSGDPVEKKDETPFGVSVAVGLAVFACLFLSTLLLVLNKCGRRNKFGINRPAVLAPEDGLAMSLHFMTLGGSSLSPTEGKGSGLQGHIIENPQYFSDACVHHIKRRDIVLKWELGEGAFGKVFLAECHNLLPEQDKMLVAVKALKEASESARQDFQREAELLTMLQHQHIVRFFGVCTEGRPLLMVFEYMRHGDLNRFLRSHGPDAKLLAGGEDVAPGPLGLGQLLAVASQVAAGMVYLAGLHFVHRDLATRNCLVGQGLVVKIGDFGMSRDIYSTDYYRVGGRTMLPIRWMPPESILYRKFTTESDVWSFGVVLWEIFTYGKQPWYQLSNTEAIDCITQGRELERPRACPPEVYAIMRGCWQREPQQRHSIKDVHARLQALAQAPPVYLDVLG

SMILES | IC50
COc1ccc(NC(=O)c2coc3c2C(=O)N(C)CC3)cn1 [Example 69, N-(6-methoxypyridin-3-yl)-5-methyl-4-oxo-4,5,6,7-tetrahydrofuro[3,2-c]pyridine-3-carboxamide] | 4.34 µM
CN1CCc2occ(C(=O)Nc3ccc(Cl)cn3)c2C1=O [Example 70, N-(5-chloropyridin-2-yl)-5-methyl-4-oxo-4,5,6,7-tetrahydrofuro[3,2-c]pyridine-3-carboxamide] | 2.49 µM
CN1CCc2occ(C(=O)Nc3cccc(C#N)c3)c2C1=O [Example 71, N-(3-cyanophenyl)-5-methyl-4-oxo-4,5,6,7-tetrahydrofuro[3,2-c]pyridine-3-carboxamide] | 3.67 µM
CCOc1ccc(NC(=O)c2coc3c2C(=O)N(C)CC3)cn1 [Example 72, N-(6-ethoxypyridin-3-yl)-5-methyl-4-oxo-4,5,6,7-tetrahydrofuro[3,2-c]pyridine-3-carboxamide] | 2.48 µM
Cc1n[nH]c2ccc(NC(=O)c3coc4c3C(=O)N(C)CC4)cc12 [Example 73, 5-methyl-N-(3-methyl-1H-indazol-5-yl)-4-oxo-4,5,6,7-tetrahydrofuro[3,2-c]pyridine-3-carboxamide] | 1.08 µM
Cc1cc2[nH]ncc2cc1NC(=O)c1coc2c1C(=O)N(C)CC2 [Example 74, 5-methyl-N-(6-methyl-1H-indazol-5-yl)-4-oxo-4,5,6,7-tetrahydrofuro[3,2-c]pyridine-3-carboxamide] | 2.59 µM
CN1CCc2occ(C(=O)Nc3nc4ccccc4s3)c2C1=O [Example 75, N-(1,3-benzothiazol-2-yl)-5-methyl-4-oxo-4,5,6,7-tetrahydrofuro[3,2-c]pyridine-3-carboxamide] | 2.05 µM
CN1CCc2occ(C(=O)Nc3ccc(C(F)(F)F)cn3)c2C1=O [Example 76, 5-methyl-4-oxo-N-[5-(trifluoromethyl)pyridin-2-yl]-4,5,6,7-tetrahydrofuro[3,2-c]pyridine-3-carboxamide] | 1.53 µM
CN1CCc2occ(C(=O)Nc3cc4cn[nH]c4cc3Cl)c2C1=O [Example 77, N-(6-chloro-1H-indazol-5-yl)-5-methyl-4-oxo-4,5,6,7-tetrahydrofuro[3,2-c]pyridine-3-carboxamide] | 0.367 µM
Cc1nc2cc(NC(=O)c3coc4c3C(=O)N(C)CC4)ccc2[nH]1 [Example 78, 5-methyl-N-(2-methyl-1H-benzimidazol-5-yl)-4-oxo-4,5,6,7-tetrahydrofuro[3,2-c]pyridine-3-carboxamide] | 0.236 µM
COc1cc(N2CCN(C(=O)CC(C)(C)C)CC2)ccc1NC(=O)c1coc2c1C(=O)NCC2 [Example 79, N-{4-[4-(3,3-dimethylbutanoyl)piperazin-1-yl]-2-methoxyphenyl}-4-oxo-4,5,6,7-tetrahydrofuro[3,2-c]pyridine-3-carboxamide] | 0.0447 µM
COc1cc(N2CCN(C(=O)N3CCCC3)CC2)ccc1NC(=O)c1coc2c1C(=O)NCC2 [Example 80, N-{2-methoxy-4-[4-(pyrrolidin-1-ylcarbonyl)piperazin-1-yl]phenyl}-4-oxo-4,5,6,7-tetrahydrofuro[3,2-c]pyridine-3-carboxamide] | 0.0677 µM
COc1cc(N2CCN(S(=O)(=O)N(C)C)CC2)ccc1NC(=O)c1coc2c1C(=O)NCC2 [Example 81, N-{4-[4-(dimethylsulfamoyl)piperazin-1-yl]-2-methoxyphenyl}-4-oxo-4,5,6,7-tetrahydrofuro[3,2-c]pyridine-3-carboxamide] | 0.0658 µM
COC(=O)c1ccc(Oc2nc(N3CCN(C)CC3)ccc2NC(=O)c2coc3c2C(=O)NCCC3)cc1 [Example 82, methyl 4-{[6-(4-methylpiperazin-1-yl)-3-{[(4-oxo-5,6,7,8-tetrahydro-4H-furo[3,2-c]azepin-3-yl)carbonyl]amino}pyridin-2-yl]oxy}benzoate] | 0.682 µM
CN1CCN(c2ccc(NC(=O)c3coc4c3C(=O)NCCC4)c(Oc3ccc(CO)cc3)n2)CC1 [Example 83, N-{2-[4-(hydroxymethyl)phenoxy]-6-(4-methylpiperazin-1-yl)pyridin-3-yl}-4-oxo-5,6,7,8-tetrahydro-4H-furo[3,2-c]azepine-3-carboxamide] | 0.496 µM
CCOc1nc(N2CCN(C(C)=O)CC2)ccc1NC(=O)c1coc2c1C(=O)N(CCOC)CC2 [Example 84, N-[6-(4-acetylpiperazin-1-yl)-2-ethoxypyridin-3-yl]-5-(2-methoxyethyl)-4-oxo-4,5,6,7-tetrahydrofuro[3,2-c]pyridine-3-carboxamide] | 0.0053 µM
COCCOc1nc(N2CCN(C(C)=O)CC2)ccc1NC(=O)c1coc2c1C(=O)N(CCOCc1ccccc1)CC2 [Example 85, N-[6-(4-acetylpiperazin-1-yl)-2-(2-methoxyethoxyl)pyridin-3-yl]-5-[2-(benzyloxy)ethyl]-4-oxo-4,5,6,7-tetrahydrofuro[3,2-c]pyridine-3-carboxamide] | 0.266 µM
CC(=O)N1CCN(c2ccc(NC(=O)c3coc4c3C(=O)N(CCOCc3ccccc3)CC4)c(OCCOCc3ccccc3)n2)CC1 [Example 86, N-{6-(4-acetylpiperazin-1-yl)-2-[2-(benzyloxy)ethoxy]pyridin-3-yl}-5-[2-(benzyloxy)ethyl]-4-oxo-4,5,6,7-tetrahydrofuro[3,2-c]pyridine-3-carboxamide] | 1.32 µM
COCCOc1nc(N2CCN(C(C)=O)CC2)ccc1NC(=O)c1coc2c1C(=O)N(CCO)CC2 [Example 87, N-[6-(4-acetylpiperazin-1-yl)-2-(2-methoxyethoxyl)pyridin-3-yl]-5-(2-hydroxyethyl)-4-oxo-4,5,6,7-tetrahydrofuro[3,2-c]pyridine-3-carboxamide] | 0.224 µM
CC(=O)N1CCN(c2ccc(NC(=O)c3coc4c3C(=O)N(CCO)CC4)c(OCCO)n2)CC1 [Example 88, N-[6-(4-acetylpiperazin-1-yl)-2-(2-hydroxyethoxyl)pyridin-3-yl]-5-(2-hydroxyethyl)-4-oxo-4,5,6,7-tetrahydrofuro[3,2-c]pyridine-3-carboxamide] | 0.095 µM
CCOc1nc(N2CCN(C(C)=O)CC2)ccc1NC(=O)c1coc2c1C(=O)N(CCCO)CC2 [Example 89, N-[6-(4-acetylpiperazin-1-yl)-2-ethoxypyridin-3-yl]-5-(3-hydroxypropyl)-4-oxo-4,5,6,7-tetrahydrofuro[3,2-c]pyridine-3-carboxamide] | 0.0047 µM
CCOc1nc(N2CCN(C(C)=O)CC2)ccc1NC(=O)c1coc2c1C(=O)N(CCCCO)CC2 [Example 90, N-[6-(4-acetylpiperazin-1-yl)-2-ethoxypyridin-3-yl]-5-(4-hydroxybutyl)-4-oxo-4,5,6,7-tetrahydrofuro[3,2-c]pyridine-3-carboxamide] | 0.0047 µM
CCOc1nc(N2CCN(C(C)=O)CC2)ccc1NC(=O)c1coc2c1C(=O)N(CCOCCO)CC2 [Example 91, N-[6-(4-acetylpiperazin-1-yl)-2-ethoxypyridin-3-yl]-5-[2-(2-hydroxyethoxyl)ethyl]-4-oxo-4,5,6,7-tetrahydrofuro[3,2-c]pyridine-3-carboxamide] | 0.007 µM
CCOc1nc(N2CCN(C(=O)OC(C)(C)C)CC2)ccc1NC(=O)c1coc2c1C(=O)NCC2 [Example 92, tert-butyl 4-(6-ethoxy-5-{[(4-oxo-4,5,6,7-tetrahydrofuro[3,2-c]pyridin-3-yl)carbonyl]amino}pyridin-2-yl)piperazine-1-carboxylate] | 0.0182 µM
CCOc1nc(N2CCN(C(=NC#N)NC)CC2)ccc1NC(=O)c1coc2c1C(=O)NCC2 [Example 93, N-{6-[4-(N′-cyano-N-methylcarbamimidoyl)piperazin-1-yl]-2-ethoxypyridin-3-yl}-4-oxo-4,5,6,7-tetrahydrofuro[3,2-c]pyridine-3-carboxamide] | 0.0163 µM
CCOc1nc(N2CCN(C(C)=O)CC2)ccc1NC(=O)c1coc2c1C(=O)N(C[C@@H](C)OC(C)=O)CC2 [Example 94, (2R)-1-[3-{[6-(4-acetylpiperazin-1-yl)-2-ethoxypyridin-3-yl]carbamoyl}-4-oxo-6,7-dihydrofuro[3,2-c]pyridin-5(4H)-yl]propan-2-yl acetate] | 0.0015 µM
CCOc1nc(N2CCN(C(C)=O)CC2)ccc1NC(=O)c1coc2c1C(=O)N(C[C@@H](C)O)CC2 [Example 95, N-[6-(4-acetylpiperazin-1-yl)-2-ethoxypyridin-3-yl]-5-[(2R)-2-hydroxypropyl]-4-oxo-4,5,6,7-tetrahydrofuro[3,2-c]pyridine-3-carboxamide] | 0.0043 µM
